How the values were obtained:
human CSNK1D = target: T1, human CSNK1D (Homo sapiens, UniProt P48730); test: Whole Cell nBRET CSNK1D Binding Assay; conditions: living CHO cells stably expressing human CSNK1D tagged with nanoluciferase; NanoBret tracer 130 nM; 2 hours at 37 C
T1 construct: expressed in transfected cells

[1] = target: T2, human recombinant GST cleaved CSNK1D (Homo sapiens, UniProt P48730); test: Purified Enzyme Assay (ADP-Glo CSNK1D Kinase Assay); type: biochemical; conditions: 2 nM CSNK1D; peptide substrate 150 μM; ATP 20 μM; 45 minutes at room temperature
T2 construct: GST (cleaved yes); purchased University of Dundee clone DU 19064
T2 sequence (P48730 whole entry): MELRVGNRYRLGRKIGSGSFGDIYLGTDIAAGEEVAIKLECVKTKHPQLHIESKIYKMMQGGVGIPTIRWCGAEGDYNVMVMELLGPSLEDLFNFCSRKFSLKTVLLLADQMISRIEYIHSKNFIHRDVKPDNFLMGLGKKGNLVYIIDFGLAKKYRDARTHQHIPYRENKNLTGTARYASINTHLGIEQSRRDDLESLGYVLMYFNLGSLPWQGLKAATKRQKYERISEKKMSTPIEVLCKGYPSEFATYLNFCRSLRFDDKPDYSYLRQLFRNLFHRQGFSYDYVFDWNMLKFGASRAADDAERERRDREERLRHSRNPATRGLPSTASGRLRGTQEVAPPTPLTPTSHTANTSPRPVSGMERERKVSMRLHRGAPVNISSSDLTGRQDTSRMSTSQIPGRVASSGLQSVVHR
Procedure, shortened: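 Percent activity derived from ADP-Glo quantification of ADP produced. Reactions: compound dose-response with human recombinant GST-cleaved CSNK1D, ATP and substrate peptide PLSRTL-pS-VASLPGL, incubated 45 min at room temperature.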

T1 sequence (P48730 whole entry): as above

| SMILES | IC50 (human CSNK1D) | IC50 [1] |
| --- | --- | --- |
| [2H]C([2H])([2H])[C@@]1(C([2H])([2H])F)CCc2c(-c3c(F)cnc4[nH]ncc34)c(-c3ccc(F)cn3)nn2C1 (single isomer, unassigned) [Example 294, (*R)-5-Fluoro-4-(6-(fluoromethyl-d2)-2-(5-fluoropyridin-2-yl)-6-(methyl-d3)-4,5,6,7-tetrahydropyrazolo[1,5-a]pyridin-3-yl)-1H-pyrazolo[3,4-b]pyridine] | 23 nM | 2 nM |
| CCn1ncc2cc(-c3c(-c4ccc(F)cn4)nn4c3CCC4)cnc21 [Example 223, 1-Ethyl-5-(2-(5-fluoropyridin-2-yl)-5,6-dihydro-4H-pyrrolo[1,2-b]pyrazol-3-yl)-1H-pyrazolo[3,4-b]pyridine] | 894 nM | 22 nM |
| Cc1nc(-c2c(-c3ccc(F)cc3)nn3c2CCC3)c2cn[nH]c2n1 [Example 225, 4-[2-(4-Fluorophenyl)-5,6-dihydro-4H-pyrrolo[1,2-b]pyrazol-3-yl]-6-methyl-1H-pyrazolo[3,4-d]pyrimidine] | 88 nM | 8 nM |
| CC1CCCc2c(-c3ccnc4[nH]ncc34)c(-c3ccc(F)cc3)nn21 (single isomer, unassigned) [Example 39, (*R)-4-[2-(4-Fluorophenyl)-7-methyl-4,5,6,7-tetrahydropyrazolo[1,5-a]pyridin-3-yl]-1H-pyrazolo[3,4-b]pyridine] | 39 nM | 4 nM |
| CC1(C)Cn2nc(-c3ccc(F)cc3)c(-c3ccnc4[nH]ncc34)c2CO1 [Example 144, 2-(4-Fluorophenyl)-6,6-dimethyl-3-(1H-pyrazolo[3,4-b]pyridin-4-yl)-6,7-dihydro-4H-pyrazolo[5,1-c][1,4]oxazine] | 3 nM | 1 nM |
| C[C@@H]1C[C@H](C)Oc2c(-c3ccnc4[nH]ncc34)c(-c3ccc(F)cn3)nn21 (single isomer, unassigned) [Example 202, (5*S,7*R)-2-(5-Fluoro-2-pyridyl)-5,7-dimethyl-3-(1H-pyrazolo[3,4-b]pyridin-4-yl)-6,7-dihydro-5H-pyrazolo[5,1-b][1,3]oxazine] | 198 nM | 10 nM |
| C[C@H]1n2nc(-c3ccc(F)cc3)c(-c3ccnc4[nH]ncc34)c2COC1(C)C (single isomer, unassigned) [Example 172] | 54 nM | 5 nM |
| Cc1cc(-c2c(-c3ccc(F)cn3)nn3c2OCCCC3)c2cn[nH]c2n1 [Example 219, 2-(5-Fluoro-2-pyridyl)-3-(6-methyl-1H-pyrazolo[3,4-b]pyridin-4-yl)-5,6,7,8-tetrahydropyrazolo[5,1-b][1,3]oxazepane] | 279 nM | 38 nM |
| CC1(C)Cn2nc(-c3ccc(F)cn3)c(-c3ccnc(NC(=O)c4ccccc4)c3)c2CO1 [Example 136, N-(4-(2-(5-Fluoropyridin-2-yl)-6,6-dimethyl-6,7-dihydro-4H-pyrazolo[5,1-c][1,4]oxazin-3-yl)pyridin-2-yl)benzamide] | 6 nM | 2 nM |
| O=C1OCCn2nc(-c3ccc(F)cn3)c(-c3ccnc4[nH]ncc34)c21 [Example 182, 2-(5-Fluoro-2-pyridyl)-3-(1H-pyrazolo[3,4-b]pyridin-4-yl)-6,7-dihydropyrazolo[5,1-c][1,4]oxazin-4-one] | > 10000 nM | 241 nM |
| Cc1cc(-c2c(-c3ccc(F)cn3)nn3c2OC(C)CC3)c2cn[nH]c2n1 (single isomer, unassigned) [Example 200, (*S)-2-(5-Fluoro-2-pyridyl)-5-methyl-3-(6-methyl-1H-pyrazolo[3,4-b]pyridin-4-yl)-6,7-dihydro-5H-pyrazolo[5,1-b][1,3]oxazine] | 56 nM | 4 nM |
| CC1(C)Cc2c(-c3ccnc4[nH]nc(Cl)c34)c(-c3ccc(F)cn3)nn2C1 [Example 237, 3-Chloro-4-(2-(5-fluoropyridin-2-yl)-5,5-dimethyl-5,6-dihydro-4H-pyrrolo[1,2-b]pyrazol-3-yl)-1H-pyrazolo[3,4-b]pyridine] | 13 nM | 4 nM |
| Cc1cc(-c2c(-c3ccc(F)cn3)nn3c2COCC3(C)C)c2cn[nH]c2n1 [Example 123, 2-(5-Fluoro-2-pyridyl)-7,7-dimethyl-3-(6-methyl-1H-pyrazolo[3,4-b]pyridin-4-yl)-4,6-dihydropyrazolo[5,1-c][1,4]oxazine] | 2350 nM | 111 nM |
| C[C@]1(CF)CCc2c(-c3ccnc4[nH]ncc34)c(-c3ccc(F)cn3)nn2C1 (single isomer, unassigned) [Example 51, (*)-4-[6-(Fluoromethyl)-2-(5-fluoro-2-pyridyl)-6-methyl-5,7-dihydro-4H-pyrazolo[1,5-a]pyridin-3-yl]-1H-pyrazolo[3,4-b]pyridine] | 11 nM | 1 nM |

The next lines start with the values.

| IC50 (human CSNK1D) | IC50 [1] | SMILES |
| --- | --- | --- |
| 3 nM | 1 nM | CC1(C(F)(F)F)Cn2nc(-c3ccc(F)cc3)c(-c3ccnc4[nH]ncc34)c2CO1 (single isomer, unassigned) [Example 417, (*)-2-(4-Fluorophenyl)-6-methyl-3-(1H-pyrazolo[3,4-b]pyridin-4-yl)-6-(trifluoromethyl)-6,7-dihydro-4H-pyrazolo[5,1-c][1,4]oxazine] |
| 1410 nM | 60 nM | Fc1ccc(-c2nn3c(c2-c2ccnc4[nH]ncc24)C[C@H]2[C@@H](C3)C2(F)F)cc1 (stereo in doubt) [Example 363, (4a*S,5a*S)-5,5-Difluoro-2-(4-fluorophenyl)-3-(1H-pyrazolo[3,4-b]pyridin-4-yl)-4a,5,5a,6-tetrahydro-4H-cyclopropa[d]pyrazolo[1,5-a]pyridine] |
| 1 nM | 1 nM | Fc1ccc(-c2nn3c(c2-c2ccnc4[nH]ncc24)OCC2(C3)CC2(F)F)cc1 (single isomer, unassigned) [Example 476, (*S)-2,2-Difluoro-2′-(4-fluorophenyl)-3′-1H-pyrazolo[3,4-b]pyridin-4-yl)-5′H,7′H-spiro[cyclopropane-1,6′-pyrazolo[5,1-b][1,3]oxazine]] |
| 40 nM | 3 nM | COCCC1(C)CCc2c(-c3ccnc4[nH]ncc34)c(-c3ccc(F)cn3)nn2C1 (single isomer, unassigned) [Example 318, (*S)-4-[2-(5-Fluoro-2-pyridyl)-6-(2-methoxyethyl)-6-methyl-5,7-dihydro-4H-pyrazolo[1,5-a]pyridin-3-yl]-1H-pyrazolo[3,4-b]pyridine] |
| 176 nM | 14 nM | [2H]C([2H])([2H])C1(C([2H])([2H])[2H])CC(O)c2c(-c3ccnc4[nH]ncc34)c(-c3ccc(F)cn3)nn2C1 (stereo not drawn) [Example 366, 2-(5-Fluoropyridin-2-yl)-6,6-bis(methyl-d3)-3-(1H-pyrazolo[3,4-b]pyridin-4-yl)-4,5,6,7-tetrahydropyrazolo[1,5-a]pyridin-4-ol] |
| 20 nM | 3 nM | Cc1nc(-c2c(-c3ccc(F)cc3)nn3c2COC(C)(C(F)(F)F)C3)c2cn[nH]c2n1 (stereo not drawn) [Example 422, 2-(4-Fluorophenyl)-6-methyl-3-(6-methyl-1H-pyrazolo[3,4-d]pyrimidin-4-yl)-6-(trifluoromethyl)-6,7-dihydro-4H-pyrazolo[5,1-c][1,4]oxazine] |
| 195 nM | 8 nM | Fc1ccc(-c2nn3c(c2-c2ccnc4[nH]ncc24)COC2(CC2)C3)nc1 [Example 432, 2-(5-Fluoro-2-pyridyl)-3-(1H-pyrazolo[3,4-b]pyridin-4-yl)spiro[4,7-dihydropyrazolo[5,1-c][1,4]oxazine-6,1′-cyclopropane]] |

Source: patent US20230339970A1, “CASEIN KINASE 1 DELTA MODULATORS” (priority 2020, published 2023)
